# Results from PMC6442474 (Planta medica, 2014).
# Biological target: tau (2N4R) (Homo sapiens, UniProt P10636)
# Test: arachidonic acid-induced tau aggregation, filter trap assay dose-response
# Assay type: biochemical
# tau (2N4R), sequence (P10636 1-441 isoform P10636-8): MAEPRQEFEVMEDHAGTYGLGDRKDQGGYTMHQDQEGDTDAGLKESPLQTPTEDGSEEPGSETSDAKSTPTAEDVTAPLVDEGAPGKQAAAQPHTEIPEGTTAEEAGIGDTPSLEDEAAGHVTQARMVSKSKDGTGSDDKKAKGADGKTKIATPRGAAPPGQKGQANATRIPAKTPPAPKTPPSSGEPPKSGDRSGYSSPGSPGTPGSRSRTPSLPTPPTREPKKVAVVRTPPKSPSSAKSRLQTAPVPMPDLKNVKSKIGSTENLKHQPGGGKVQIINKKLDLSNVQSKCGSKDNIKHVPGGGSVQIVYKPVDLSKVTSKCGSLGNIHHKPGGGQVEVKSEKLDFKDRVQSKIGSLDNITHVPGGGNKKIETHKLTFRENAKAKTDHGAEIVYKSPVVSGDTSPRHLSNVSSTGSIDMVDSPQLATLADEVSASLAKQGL
row,IC50 [µM],Molecule
1,205 ± 28,"O=C1c2cc(CO)cc(O)c2C(=O)c2c1cc(O)c(O)c2O [2,ω-dihydroxyemodin]"
2,177 ± 103,asperbenzaldehyde
3,39 ± 2,O=C1c2c(cc(CO)c(O)c2O)C(=O)c2c(O)c(O)cc(O)c21 [asperthecin]
